According to patent US7314755B2, “Preservation of eukaryotic cells using reversible pore formation” (Board of Supervisors of Louisiana State University and …, priority 2003, dated 2008):

What was measured:
J774 cells [1] = test: AlamarBlue reduction, metabolic activity after ATP-dependent poration; assay type: cell-based, mouse
Protocol: J774.A1 mouse macrophage cells (ATCC, Manassas, Va.) were grown in 75 cm^2 cell culture flasks (Corning Incorporated, Corning, N.Y.) containing a standard culture medium of Dubelco's modified Eagle's medium without sodium pyruvate, supplemented with 10% fetal bovine serum, 100 units/mL penicillin, 100 μg/mL streptomycin, and 2 mM glutamine (“DMEM”) (all from Invitrogen, Grand Islands, N.Y.). The cells were maintained in a humidified atmosphere of 10% CO2 and 90% air at 37° C. The number of cells per flask was determined with a hemocytometer after removal with a cell scraper. […]
(§1) To assess the effect of ATP-induced permeability on cell viability, cells were grown in suspension after activation and subsequent closure of the P2X7 receptor, as described above. […] The number of viable cells at different times was determined by counting with a hemocytometer after diluting the sample 1:1 with a 0.4% Trypan blue solution (Sigma, St. Louise, Mo.). Alternatively, cell viability was assessed by monitoring the metabolic activity of the cells with AlamarBlue™ (BioSource International, Inc., Camarillo, Calif.). […] After adding 20,000 to 40,000 cells to each well, absorbances at λ=570 nm and λ=600 nm were measured with a micro plate reader (Spectramax Plus, Molecular Devices, Sunnyvale, Calif.) at different times. […]

J774 cells [2] = test: Cell proliferation (cell counts) after ATP poration; assay type: cell-based, mouse; settings: 15 min in Buffer 1+5 mM ATP, then spinner flask culture; FIG. 3
Protocol: To introduce compounds that were otherwise membrane-impermeable into the cytoplasm, J774.A1 cells were centrifuged at 175 g; and were then resuspended in Buffer 1 (50 mM K2HPO4/KH2PO4, pH 7.0, 365 mOsm, 250 mM trehalose, 1 mM MgSO4, 5 mM glucose, supplemented with Basal Medium Eagle Vitamin Solution and MEM Amino Acids Solution (Invitrogen, Grand Islands, N.Y.), with each of the last two components diluted to 1×). […] The cells were incubated for 15 min or 30 min at 37° C. in sealed microtubes.
as §1
In another series of experiments, we assessed the degree to which cell proliferation was suspended following poration. […]

J774 cells [3] = test: Calorimetric heat dissipation after ATP poration; assay type: cell-based, mouse; settings: Buffer 1+5 mM ATP, 37° C., FIG. 4
Protocol: Calorimetric measurements were conducted to assess the influence of various treatments on the total energy flow of J774 cells. A 2277 thermal activity monitor (LKB Produkter, Bromma, Sweden) was used to measure the heat dissipation of J774 cells in suspension. A 4 mL static ampule charged with 2.7 mL water was used as a reference vessel. Static and dynamic calibrations against water in both ampules were performed before the experimental heat signals were measured. For the experiments, the sample ampule was charged with 2.7 mL of cell suspension. An aliquot of the spinner flask culture was diluted with standard culture medium to give 130,000-250,000 cells in 2.7 mL, which was equilibrated with 10% CO2 and 90% air. All calorimetric measurements were performed at 37° C. A two-hour period was allowed for thermal equilibration after lowering the ampule into the calorimeter. The power signal was then recorded for the next 20 hours. The ongoing proliferation of the cells produced a continuous increase in the heat signal during the measurements.
In this series of experiments, we assessed the influence of ATP-induced poration on the heat dissipation of J774 cells. […] Each bar in FIG. 4 represents the mean±standard deviation for three to six separate measurements. The pair of asterisks for the bar at three hours indicates a statistically significant difference from control (P<0.05).

J774 cells [4] = test: Trehalose uptake with and without extracellular ATP; assay type: cell-based
Protocol: Cell extracts were assayed for trehalose concentrations by separating carbohydrate peaks on a Hamilton RCX10 column, and then analyzing using pulsed amperometric electrochemical detection with an ESA Coulochem cell. […] The white bars are results from treatment for 15 minutes at 37° C. The cross-hatched bars are results from treatment for 15 minutes at 37° C., followed by 2 hours at 0° C. […] Each bar in FIG. 7 represents the mean of several different measurements. Although leaving the pores open for the longer periods of time at 37° C. can lead to cell death, the pores may be left open for longer periods at lower temperatures, while still leaving the cells viable and still allowing higher uptake of trehalose. At least 40% of the cells survived this treatment. We expect that the survivorship percentage will be improved by reducing the time the cells are held at 37° C. prior to chilling; future experiments will be done along these lines.

porated cells = test: Early unpublished ATP-induced cell poration, cell survival; assay type: cell-based; settings: ATP-induced poration as in literature, pores not closed early; usually within about 24 hours
Excerpt: We observed that various dyes were indeed taken up by the cells as reported in the literature. But, at least in our experiments, we also invariably observed that the cells died soon thereafter.

J774 cells [5] = test: HPLC of nucleotides in extracts of cells loaded by ATP poration; assay type: cell-based, mouse; settings: for intracellular nucleotides after loading (HPLC chromatogram): 20 min poration at 37° C. in DMEM pH 7.4 with 5 mM ATP, 5 mM AMP or 3.5 mM AMPS, FIG. 5
Protocol: Acid soluble extracts of cell suspensions were prepared by adding ice-cold 70% perchloric acid to a final concentration of 7% (w/v). Acid insoluble fractions were removed by centrifugation for 10 min at 10,000 g and 4° C. (Eppendorf Centrifuge 5417R, Fischer Scientific, Pittsburgh, Pa.). Extracts were neutralized with ice-cold 5 M K2CO3, and were stored at −80° C. until analyzed. The potassium perchlorate precipitate was removed by centrifugation as above. Analyses were performed using a Dionex HPLC system, including a GP 50 gradient pump, an AS 50 auto-sampler and an AS 50 thermal compartment (Dionex, Sunnyvale, Calif.). Aliquots of the supernatant were applied to a 4.6 mm×25 cm reverse-phase column (Synergy 4M Hydro RP 80A, Phenomenex, Torrance, Calif.),and eluted isocratically for 15 min with a starting buffer of 50 mM K2HPO4/KH2PO4, pH 6.2, containing 10 mM tetrabutyl-ammonium hydrogen sulfate (Sigma, St. Louise, Mo.) at a flow rate of 1 mL/min at 30° C. Then a linear gradient from 0% to 25% acetonitrile was applied over 40 min. Absorbance of the effluent was monitored with a PDA-100 photodiode array detector (Dionex, Sunnyvale, Calif.) at wavelengths from λ=190 nm to λ=390 nm. Peaks were identified by comparison with retention times of standards, as well as by analyzing peak spectra between λ=190 nm and λ=390 nm from a recorded 3D-field with Chromeleon™ software (Dionex, Sunnyvale, Calif.). Concentrations of nucleotides were determined from a measurement of peak area at λ=260 nm. Calibration curves were linear over the range assayed.
During poration, the cells were exposed to 5 mM AMP, or to 3.5 mM AMPS. Cells were extracted with perchloric acid after incubation. FIG. 5(A) depicts an HPLC chromatogram of the extracted AMP-loaded cells, and FIG. 5(B) depicts an HPLC chromatogram of the extracted AMPS-loaded cells.
The experiment was otherwise conducted as described in Example 5 and illustrated in FIG. 5(B), except that cellular AMP-deaminase was inhibited by adding 35 μM coformycin to the medium.

[6] = tested on: AMP-activated protein kinase; settings: cited from earlier work
J774 cells [7] = test: Viability (trypan blue exclusion) after air-drying and rehydration; assay type: cell-based, mouse; settings: 1 μM Trifluoperazine and 200 nM cyclosporin A together, in EB drying buffer and rehydration DMEM; versus control; FIG. 10

Compound: Nc1ncnc2c1ncn2[C@@H]1O[C@H](COP(=O)(O)OP(=O)(O)OP(=O)(O)O)[C@@H](O)[C@H]1O [ATP, adenosine 5′-triphosphate]
- metabolic activity when poration time increased from 15 minutes to 30 minutes (J774 cells [1]; Buffer 1+5 mM ATP, measured 17 h and 41 h after treatment, FIG. 2): decreased substantially
- reduction of metabolic activity (AlamarBlue reduction) (J774 cells [1]; J774 cells, 40,000 per well, 15 min incubation, versus untreated control, FIG. 1): about 50%
- time for which cell proliferation stopped after poration (J774 cells [2]): approximately 20 hours
- heat dissipation 3 hours after poration (J774 cells [3]; versus control cells): significantly reduced
- heat signal 24 hours after poration (J774 cells [3]; versus untreated control cells): indistinguishable from that for the untreated control cells
- cells surviving extended pore opening at low temperature (J774 cells [4]; Buffer 1+5 mM ATP, 15 min at 37° C. followed by 2 hours at 0° C.): At least 40%
- fate of porated cells in early work (porated cells): invariably died

Compound: Nc1ncnc2c1ncn2[C@@H]1O[C@H](COP(O)(O)=S)[C@@H](O)[C@H]1O [AMPS, Adenosine 5′-phosphorothioate]
- intracellular AMPS with AMP-deaminase inhibited (J774 cells [5]; 3.5 mM AMPS, 5 mM ATP poration, 35 μM coformycin in medium, FIG. 6): substantial intracellular concentration of AMPS was observed
- intracellular nucleotides after loading (HPLC chromatogram) (J774 cells [5]): substantial production of a new compound
- uptake by the cells in the absence of ATP (J774 cells [4]; no pore opening, data not shown): only negligible concentrations
- Km value, fold lower than the natural effector 5′-AMP [6]: approximately 6 fold

Compound: Nc1ncnc2c1ncn2[C@@H]1O[C@H](COP(=O)(O)O)[C@@H](O)[C@H]1O [AMP]
- intracellular nucleotides after loading (HPLC chromatogram) (J774 cells [5]): an increase in ADP, and a substantial increase in IMP

Compound: OC[C@H]1O[C@@H](n2cnc3c2N=CNC[C@H]3O)[C@H](O)[C@@H]1O [coformycin]
- effect on the metabolism of AMPS in the cells (J774 cells [5]; 35 μM coformycin in medium, AMPS-loaded porated cells, FIG. 6): inhibited the metabolism of AMPS in the cells

Compound: CN1CCN(CCCN2c3ccccc3Sc3ccc(C(F)(F)F)cc32)CC1 [trifluoperazine, Trifluoperazine]
- viability post-drying with apoptosis inhibitors (J774 cells [7]): higher viability post-drying

Compound: OC[C@H]1O[C@H](O[C@H]2O[C@H](CO)[C@@H](O)[C@H](O)[C@H]2O)[C@H](O)[C@@H](O)[C@@H]1O [trehalose]
- trehalose uptake in ATP-treated cells (J774 cells [4]; Buffer 1+5 mM ATP (250 mM trehalose), versus Buffer 1 without ATP, 15 min 37° C. or plus 2 h 0° C., FIG. 7): significantly higher trehalose uptake
- trehalose uptake in the absence of extracellular ATP (J774 cells [4]; Buffer 1 without ATP, FIG. 7): Some uptake of trehalose was observed

Compound: cyclosporin A
- viability post-drying with apoptosis inhibitors (J774 cells [7]): higher viability post-drying
